{
  "source": "patent EP0946179B1",
  "about": "(ELI LILLY AND COMPANY, priority 1996, dated 1997)",
  "key": {"[1]": {"system": "muscarinic cholinergic receptor", "test": "pharmacological studies, muscarinic receptor activity"}, "[2]": {"biological_target": "T1, 5-HT1C receptor (Homo sapiens, UniProt P28335)", "T1 sequence (P28335 33-458)": "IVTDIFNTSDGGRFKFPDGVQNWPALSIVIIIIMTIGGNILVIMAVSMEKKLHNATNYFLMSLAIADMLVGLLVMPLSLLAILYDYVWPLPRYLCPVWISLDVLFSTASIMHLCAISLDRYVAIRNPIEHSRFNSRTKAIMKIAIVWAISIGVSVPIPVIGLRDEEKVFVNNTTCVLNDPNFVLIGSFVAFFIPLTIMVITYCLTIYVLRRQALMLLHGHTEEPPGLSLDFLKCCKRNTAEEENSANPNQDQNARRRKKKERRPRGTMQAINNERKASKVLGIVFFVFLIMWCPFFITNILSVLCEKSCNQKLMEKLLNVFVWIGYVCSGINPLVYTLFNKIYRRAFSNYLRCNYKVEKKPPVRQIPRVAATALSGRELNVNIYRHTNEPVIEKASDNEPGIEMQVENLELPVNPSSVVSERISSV", "test": "pharmacological studies, 5-HT1C receptor activity"}, "[3]": {"test": "double-blind multicenter clinical trial, olanzapine versus placebo", "assay_type": "in vivo", "conditions": "patients randomized to olanzapine or placebo", "from_the_text": "A double-blind multicenter clinical trial was designed to assess the safety and efficacy of olanzapine. Patients were randomized to olanzapine or placebo."}},
  "data": [
    {"compound": "Cc1cc2c(s1)Nc1ccccc1N=C2N1CCN(C)CC1", "note": "[olanzapine, 2-methyl-4-(4-methyl-1-piperazinyl)-10H-thieno[2,3-b][1,5] benzodiazepine]", "values": [
      {"measurement": "muscarinic cholinergic receptor activity", "setting": "[1]", "result": "has muscarinic cholinergic receptor activity"},
      {"measurement": "activity at the 5-HT1C receptor", "setting": "[2]", "result": "active"},
      {"measurement": "usefulness for the treatment of autism", "setting": "[3]", "result": "can be useful for the treatment of autism"},
      {"measurement": "usefulness for the treatment of mental retardation", "setting": "[3]", "result": "can be useful for the treatment of mental retardation"}
    ]}
  ]
}
